Measurements from patent US20240076347A1, “METHODS FOR PREVENTING FUNGAL INFECTIONS” (Cidara Therapeutics, Inc., priority 2016, published 2024).
Where “and” joins values, the source holds several entries; their conditions need not be identical. Equal values may be shown once. Read-outs that look alike come from different tables or passages of the source. Numbered stars: 1 amine (or outer) side, 2 acyl side, 3 side chain; on linkers, the order of the positions; unused ones are H or OH. Bridge positions count the residues as written; N and C are the ends. Square brackets hold non-standard residues; d marks the D form. Peptide text beside a SMILES is read from it. * marks the point of attachment. ξ: configuration not given here. Orn(4R-OH,5R-OCH2CH2NMe3+) = C[N+](C)(C)CCO[C@@H](N[*:3])[C@H](O)C[C@H](N[*:1])C(=O)[*:2]; pTerphenylCO(4''-OnC5H11) = CCCCCOc1ccc(-c2ccc(-c3ccc(C(=O)*)cc3)cc2)cc1; hTyr(3S-OH,4S-OH) = N[C@H](C(=O)O)[C@H](O)[C@@H](O)c1ccc(O)cc1; X1 = C[C@H]1CN([*:1])C(C(=O)[*:2])C1O; Hyp = O=C(O)[C@@H]1C[C@@H](O)CN1; ξT = CC(O)C(N)C(=O)O

Key:
[1] = tested on: A. fumigatus (ATCC 13073); experiment: Disseminated infection of immune competent DBA/2 mice, prophylaxis, survival; assay type: in vivo, Aspergillus fumigatus
Method: A. fumigatus (ATCC 13073) growth was taken from 96 hour potato dextrose agar (PDA) and re-suspended in 0.1% Tween 20. The culture was resuspended in 1 mL cold PBS (>1.0×10^8 CFU/mL, OD620 2.3-2.8). The culture was then diluted in PBS to final cellular densities of 1.0×10^7 CFU/mL. The actual colony counts were determined by plating dilutions on PDA plates to confirm inoculation concentration. The actual inoculum count was 1.30×10^7 CFU/mL.
Groups of 6 immune competent female DBA/2 mice weighing 18±2 g were used. On Day 0, animals were inoculated (0.1 mL/mouse) by intravenous (IV) injection into the tail vein with A. fumigatus (ATCC 13073), 1.30×10^6 CFU per mouse. CD101 at 3, 10 and 30 mg/kg as prophylaxis was administered subcutaneously (SC) once starting 5, 3 or 1 day before inoculation. In addition, CD101 at 3 mg/kg SC and the reference, amphotericin B, at 3 mg/kg by intraperitoneal (IP) injection were administered one hour after infection (See Table 2).
A 50 percent or more (≥50%) increase in the survival rate compared to the vehicle control group indicates significant anti-infective activity. The health observations including body weight, hunched posture, ruffled fur, immobility and hypothermia were recorded daily for 14 days.

[2] = tested on: Candida albicans (ATCC SC5314); experiment: Disseminated candidiasis in immunocompetent DBA/2 mice, prophylaxis, kidney fungal burden; assay type: in vivo
Method: Cultures of Candida albicans (ATCC SC5314) were grown overnight at 37° C. in an ambient atmosphere on Sabouraud agar. Cultures were removed from the incubator, aseptically transferred to tubes of phosphate buffered saline (PBS), and an optical density was determined at 600 nm. The cultures were diluted to provide a challenge inoculate of approximately 5.0 log10 CFU per mouse in a volume of 100 μL. Each animal was administered an intravenous (IV) challenge in a volume of 100 IL on Day 0. Instillation of the challenge constituted time 0 hour for the study.
Mice were treated with CD101 one time via subcutaneous (SC) injection prior to challenge on either Day −5, Day −3, Day −1 or Day 0 per Table 3. Micafungin and vehicle controls were administered on Day 0 as per Table 3. Day 0 treatment or control administration occurred immediately following the challenge. Test articles were administered in a volume of 0.5 mL.
The primary endpoint used to assess progress of the infection was mean CFU burden per gram of kidney tissue. At 24 hours post-challenge, mice were humanely euthanized via CO2 overexposure. Kidneys were aseptically removed, weighed, and transferred to sterile tubes containing 2 mL of PBS. Tissues were homogenized with a mini-bead beater. Serial dilutions of the tissue homogenates were plated on Sabouraud dextrose agar plates and incubated at 37° C. for 24-48 hours. CFU/g tissue was determined from colony counts.

[3] = Tissue distribution in SD rats after IV dose; assay type: in vivo; details: Sprague-Dawley, rat, 5 mg/kg IV
Method: The in vitro activity of CD101 was evaluated against 153 A. fumigatus clinical isolates collected as part of the 2014 and 2015 JMI international SENTRY surveillance program. Susceptibility was determined by measuring the minimal effective concentration (MEC) values in accordance with CLSI broth microdilution guidelines (M38-A2). In vivo tissue distribution of CD101 in SD rats (N=3/time up to 5 d) after a 5 mg/kg IV CD101 dose. Plasma/tissue concentrations were measured by LC-MS/MS.

C. albicans = experiment: In vitro susceptibility testing (CLSI M27-A3); assay type: cell-based; details: Candida albicans, 24 h
Method: Strains. Ten clinical Candida strains were used for the in vivo treatment studies, including four C. albicans, three C. glabrata, and three C. parapsilosis strains (Table 18). This group was selected to encompass phenotypic variability in susceptibility to triazoles and echinocandins and based on similar fitness in the animal model as defined by the amount of growth in control animals over 24 h. The organisms were maintained, grown, and quantified on Sabouraud's dextrose agar (SDA) plates.
In vitro susceptibility testing. All isolates were tested in accordance with the standards in CLSI document M27-A3. The MICs were determined visually after 24 h of incubation as the lowest concentration of drug that causes a significant diminution (≥50%) of growth compared to controls. MICs were determined on three separate occasions in duplicate.

[4] = Plasma and lung epithelial lining fluid (ELF) pharmacokinetics in ICR mice; assay type: in vivo; details: 20 mg/kg IP; for Kp: ip, 20 mg/kg
Method: At pre-dose, 1, 3, 6, 12, 24, 48, and 72 hours post-dose, 3 mice/timepoint were anesthetized/euthanized for blood collection (plasma) and bronchoalveolar lavage fluid (BALF) collection with 2×0.5 mL flushes of saline. Urea levels for plasma/BALF normalization for the volume of lung epithelial lining fluid (ELF) calculation were quantified using a commercially-available spectrophotometry-based assay. CD101 concentrations in plasma/BALF samples were measured by LC with electrospray ionization tandem mass spectrometric (LC-MS/MS) detection.
Urea for plasma/BALF normalization for ELF volume were quantified using spectrophotometry. CD101 concentrations in plasma/BALF samples were measured by LC-MS/MS. Total plasma concentrations were corrected for protein binding (99.2%).

[5] = tested on: A. fumigatus clinical isolates; details: SENTRY surveillance (Pfaller, et al 2017); cited from earlier work
[6] = tested on: Candida albicans clinical isolates; details: SENTRY surveillance (Pfaller, et al 2017); cited from earlier work

SMILES: CCCCCOc1ccc(-c2ccc(-c3ccc(C(=O)N[C@H]4C[C@@H](O)[C@@H](OCC[N+](C)(C)C)NC(=O)C5C(O)[C@@H](C)CN5C(=O)[C@H]([C@@H](C)O)NC(=O)[C@H]([C@H](O)[C@@H](O)c5ccc(O)cc5)NC(=O)[C@@H]5C[C@@H](O)CN5C(=O)C(C(C)O)NC4=O)cc3)cc2)cc1 (stereo partly drawn) [CD101] ({pTerphenylCO(4''-OnC5H11)}-[Orn(4R-OH,5R-OCH2CH2NMe3+)][ξT][Hyp][hTyr(3S-OH,4S-OH)]T[X1]; lactam 1-C)
- 14-day survival ([1]; 3 mg/kg SC 1 hour after infection): significant increase in the 14-day survival
- symptoms of infection (body weight, hunched posture, ruffled fur, immobility, hypothermia) ([1]; 3, 10 and 30 mg/kg SC on Day −5, −3 and −1): improved
- increase in the 14-day survival compared to the vehicle group ([1]; SC: 3 mg/kg Day −1, 10 mg/kg Day −5, −3, −1, 30 mg/kg Day −5, −3, −1): 50%
- kidney CFU ([2]; 3 mg/kg SC Day −1, all but one animal): cleared the infection completely
- kidney CFU ([2]; 3 mg/kg SC on Day −5 and Day −3 (two doses, inadvertent)): completely cleared the infection
- kidney CFU ([2]; 10 or 30 mg/kg SC at all pre-challenge time points, 24 hr harvest): cleared the infection completely
- half-life ([3]; plasma, read-out: t1/2 in plasma (converted)): 39 h
- half-life ([3]; all tissues studied, read-out: t1/2 in tissues): 40 to 77 h
- Kp ([3]; liver, kidney, lung, spleen, read-out: tissue/plasma exposure ratios): ~4
- MIC (C. albicans; strain 98-17): 0.06 µg/mL
- MIC (C. albicans; strain 98-210): 0.03 µg/mL
- MIC (C. albicans; strain 580): 0.06 µg/mL
- MIC (C. albicans; strain K-1): 0.06 µg/mL
- mean maximum ELF concentration [4]: 15.1 µg/mL
- mean maximum plasma concentration [4]: 30.1 µg/mL
- time of maximum ELF concentration [4]: 6 h and 4 h
- time of maximum plasma concentration ([4]; first collection timepoint): 1 h
- concentration at 72 h ([4]; ICR, mouse, lung epithelial lining fluid (ELF), intraperitoneal, at 72 h): 4000 ng/mL
- Kp ([4]; ICR, mouse, lung epithelial lining fluid (ELF), free-drug (protein binding 99.2%), read-out: ELF/Plasma AUC ratio): 100
- Kp ([4]; ICR, mouse, lung epithelial lining fluid (ELF), read-out: AUC exposure ratios of ELF/plasma): 0.8 to 0.95
- Kp ([4]; ICR, mouse, lung epithelial lining fluid (ELF), total-drug, read-out: ELF/Plasma AUC ratio): 0.8
- half-life ([4]; ICR, mouse, lung epithelial lining fluid (ELF), read-out: ELF half-life (converted)): 31.9 h
- AUC(0-t) ([4]; ICR, mouse, lung epithelial lining fluid (ELF), read-out: mean ELF AUC0-72): 606 µg·h/mL
- AUC(0-inf) ([4]; ICR, mouse, lung epithelial lining fluid (ELF), read-out: mean ELF AUCinf): 802 µg·h/mL
- AUC(0-t) ([4]; ICR, mouse, plasma, read-out: mean plasma AUC0-72): 762 µg·h/mL
- AUC(0-inf) ([4]; ICR, mouse, plasma, read-out: mean plasma AUCinf): 848 µg·h/mL
- half-life ([4]; ICR, mouse, plasma, read-out: plasma half-life (converted)): 21.1 h
- MEC90 [5]: 0.015 µg/mL
- MIC90 [6]: 0.06 µg/mL
